Molecular target: T1, ribonuclease III (RNase III) (Escherichia coli, UniProt P0A7Y0)
T1 sequence (P0A7Y0 1-226): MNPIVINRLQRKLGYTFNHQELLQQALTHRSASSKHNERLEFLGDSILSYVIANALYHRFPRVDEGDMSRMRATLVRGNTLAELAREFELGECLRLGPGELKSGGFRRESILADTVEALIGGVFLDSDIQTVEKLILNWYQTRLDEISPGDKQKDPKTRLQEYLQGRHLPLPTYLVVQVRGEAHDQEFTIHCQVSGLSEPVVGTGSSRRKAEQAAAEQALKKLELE
Experiment: cleavage of […]-labeled R1.[…] RNA by purified RNase III, gel assay, […] Mg2+
Assay type: biochemical

IC50: 14 ± 2 µM
Structure (SMILES): O=C1Cc2ccccc2C(=O)N1O [compound 1, 2-hydroxy-4H-isoquinoline-1,3-dione]
